According to patent US7288510B2, “Nitrogen-containing ortho ester-based surfactant, its preparation and use” (priority 2001, dated 2007):
Marks after values point to notes of the source that are not given here.

How the values were obtained:
[1] = foaming behaviour (proposed ISO 4877 circulation method); assay type: physicochemical
Description: The surfactant is dissolved in distilled water and diluted to a defined concentration. 500 ml of this solution is transferred to a thermostatable glass cylinder, graduated to 1500 ml. The solution is then circulated through a stainless steel tube using a pump. The solution enters the tube in the bottom of the glass cylinder and is released ca. 14 cm above the 1500-ml mark on the cylinder. The pump speed is 200 liter/h.
The solution is circulated for 10 minutes (foam level recorded each minute), the pump is then stopped, and the foam level recorded for additional 5 minutes (proposed ISO-method ISO 4877).

[2] = surface tension at a concentration of 0.1%; assay type: physicochemical; settings: pH 8 buffer solution, bubble pressure method
[3] = dynamic contact angle of alkaline formulations; assay type: physicochemical; settings: formulation diluted 1:10, on Parafilm PM-922
Description: In this example, the wetting properties of alkaline formulations of some of the surfactants earlier described are tested by dynamic contact angle measurements.
Formulations I-III above were diluted 1:10 before measurements. The dynamic contact angle was measured on a hydrophobic, polymeric material (Parafilm PM-922, American Can Company) using a First Ten Ångstroms FTÅ 200 instrument (Portsmouth, Va., USA) equipped with a video camera and an image analyzing unit.

[4] = literature value; cited from earlier work
[5] = hydrotrope test: clarity interval of cleaning formulation; assay type: physicochemical; settings: for Active amount of hydrotrope added: amount needed until the formulation of Table 10 was clear; for Cloud point of formulation: formulation of Table 10 with the hydrotrope
Description: [table] Tetrapotassium pyrophoshate and sodium metasilicate pentahydrate were dissolved in tap water. The ethoxylated alcohol was added to this solution, which then turned cloudy. The hydrotrope was added until the solution was clear, and the required amount was recorded. Then the temperature was raised until the mixture went cloudy again.

CCCCCCCCCCCC[N+](C)(C)C.[Br-] [Dodecyltrimethylammonium bromide, n-dodecyltrimethylammonium bromide]
foaming behaviour in words [1]: not affected by the addition of acid | Foam Volume ([1]; 0.01% in distilled water, 1 min, circulating): 160 mL | Foam Volume ([1]; 0.01% in distilled water, 2 min, circulating): 160 mL | Foam Volume ([1]; 0.01% in distilled water, 3 min, circulating): 160 mL | Foam Volume ([1]; 0.01% in distilled water, 4 min, circulating): 140 mL | Foam Volume ([1]; 0.01% in distilled water, 5 min, circulating): 140 mL | Foam Volume ([1]; 0.01% in distilled water, 6 min, circulating): 140 mL | Foam Volume ([1]; 0.01% in distilled water, 7 min, circulating): 140 mL | Foam Volume ([1]; 0.01% in distilled water, 8 min, circulating): 140 mL | Foam Volume ([1]; 0.01% in distilled water, 9 min, circulating): 140 mL | Foam Volume ([1]; 0.01% in distilled water, 10 min, circulating): 140 mL | Foam Volume ([1]; 0.01% in distilled water, 11 min, pump stopped at 10 min): 0 mL | Foam Volume ([1]; 0.01% in distilled water, 12 min, pump stopped at 10 min): 0 mL | Foam Volume ([1]; 0.01% in distilled water, 13 min, pump stopped at 10 min): 0 mL | Foam Volume ([1]; 0.01% in distilled water, 14 min, pump stopped at 10 min): 0 mL | Foam Volume ([1]; 0.01% in distilled water, 15 min, pump stopped at 10 min): 0 mL | Foam Volume ([1]; 0.1% acid treated (pH 2.5, sulfuric acid, stirred 10 minutes), 1 min, circulating): 820 mL | Foam Volume ([1]; 0.1% acid treated (pH 2.5, sulfuric acid, stirred 10 minutes), 2 min, circulating): 1100 mL | Foam Volume ([1]; 0.1% acid treated (pH 2.5, sulfuric acid, stirred 10 minutes), 3 min, circulating): 1280 mL | Foam Volume ([1]; 0.1% acid treated (pH 2.5, sulfuric acid, stirred 10 minutes), 4 min, circulating): 1360 mL | Foam Volume ([1]; 0.1% acid treated (pH 2.5, sulfuric acid, stirred 10 minutes), 5 min, circulating): 1380 mL | Foam Volume ([1]; 0.1% acid treated (pH 2.5, sulfuric acid, stirred 10 minutes), 6 min, circulating): 1380 mL | Foam Volume ([1]; 0.1% acid treated (pH 2.5, sulfuric acid, stirred 10 minutes), 7 min, circulating): 1360 mL | Foam Volume ([1]; 0.1% acid treated (pH 2.5, sulfuric acid, stirred 10 minutes), 8 min, circulating): 1360 mL | Foam Volume ([1]; 0.1% acid treated (pH 2.5, sulfuric acid, stirred 10 minutes), 9 min, circulating): 1350 mL | Foam Volume ([1]; 0.1% acid treated (pH 2.5, sulfuric acid, stirred 10 minutes), 10 min, circulating): 1340 mL | Foam Volume ([1]; 0.1% acid treated (pH 2.5, sulfuric acid, stirred 10 minutes), 11 min, pump stopped at 10 min): 800 mL | Foam Volume ([1]; 0.1% acid treated (pH 2.5, sulfuric acid, stirred 10 minutes), 12 min, pump stopped at 10 min): 340 mL | Foam Volume ([1]; 0.1% acid treated (pH 2.5, sulfuric acid, stirred 10 minutes), 13 min, pump stopped at 10 min): 280 mL | Foam Volume ([1]; 0.1% acid treated (pH 2.5, sulfuric acid, stirred 10 minutes), 14 min, pump stopped at 10 min): 120 mL | Foam Volume ([1]; 0.1% acid treated (pH 2.5, sulfuric acid, stirred 10 minutes), 15 min, pump stopped at 10 min): 60 mL | Foam Volume ([1]; 0.1% in distilled water, 1 min, circulating): 780 mL | Foam Volume ([1]; 0.1% in distilled water, 2 min, circulating): 1080 mL | Foam Volume ([1]; 0.1% in distilled water, 3 min, circulating): 1260 mL | Foam Volume ([1]; 0.1% in distilled water, 4 min, circulating): 1340 mL | Foam Volume ([1]; 0.1% in distilled water, 5 min, circulating): 1370 mL | Foam Volume ([1]; 0.1% in distilled water, 6 min, circulating): 1360 mL | Foam Volume ([1]; 0.1% in distilled water, 7 min, circulating): 1360 mL | Foam Volume ([1]; 0.1% in distilled water, 8 min, circulating): 1340 mL | Foam Volume ([1]; 0.1% in distilled water, 9 min, circulating): 1320 mL | Foam Volume ([1]; 0.1% in distilled water, 10 min, circulating): 1320 mL | Foam Volume ([1]; 0.1% in distilled water, 11 min, pump stopped at 10 min): 1200 mL | Foam Volume ([1]; 0.1% in distilled water, 12 min, pump stopped at 10 min): 800 mL | Foam Volume ([1]; 0.1% in distilled water, 13 min, pump stopped at 10 min): 400 mL | Foam Volume ([1]; 0.1% in distilled water, 14 min, pump stopped at 10 min): 260 mL | Foam Volume ([1]; 0.1% in distilled water, 15 min, pump stopped at 10 min): 180 mL | γ at 0.10% and 21° C. [2]: 52.5 mN/m | Contact angle after 10 s [3]: 68.2 ° | Contact angle after 30 s [3]: 67.9 ° | Contact angle after 1 min [3]: 67.4 ° | cmc at 21° C. [4]: 4.9^c g/l

CC(C)c1ccc(S(=O)(=O)[O-])cc1.[Na+] [Sodium cumene sulfonate]
Active amount of hydrotrope added [5]: 9.0 % (w/w) | Cloud point of formulation [5]: 45-50 °C

CCCCCCCCCCCCCC[N+](C)(C)C.[Br-] [Tetradecyltrimethylammonium bromide, n-tetradecyltrimethylammonium bromide]
γ at 0.10% and 21° C. [2]: 41.5 mN/m | Contact angle after 10 s [3]: 60.4 ° | Contact angle after 30 s [3]: 60.1 ° | Contact angle after 1 min [3]: 59.1 ° | cmc at 21° C. [4]: 1.2^d g/l

disodium octyliminodipropionate
Active amount of hydrotrope added [5]: 6.0 % (w/w) | Cloud point of formulation [5]: 45-50 °C
